One experiment relates to HK-2 cells. The experiment can be described thus: Cell viability against ROS (200 μM hydrogen peroxide), Alamar Blue. It counts as cell-based, human. The protocol: HK-2 cells were treated with 200 μM hydrogen peroxide and various concentrations of the biopolymer-hemin complexes. After 24 hours of incubation, cell viability was evaluated using the Alamar Blue assay.
It was confirmed that the biopolymer-hemin complex removes ROS such as hydrogen peroxide and protects cells from oxidative stress (FIG. 4D). The ROS protective effect of the biopolymer-hemin complex was assayed in HK-2 cells with hydrogen peroxide. Various concentrations of hemin and biopolymer-hemin complexes with the same amount of hemin were added to cells treated with hydrogen peroxide (200 μM). The survival rate of cells was improved by increasing the concentration of the biopolymer-hemin complex or hemin.
Background: The colour change of resazurin is a common sign of viable cells or microbes.

The subject of experiment [1] is AKI mouse model established using glycerol. The experiment is described as follows: Histological analysis of kidneys of AKI mice (H&E, DHE, KIM-1, MAC387). Format: in vivo, ICR mice. As for the experimental part: (§1) All animal experiments were performed in accordance with the Gwangju Institute of Science and Technology Animal Care Committee guidelines (GIST-2021-095). Six-week-old ICR mice (30 g) were used, with free access to food and water. To establish an acute kidney injury (AKI) model, water was restricted for 18 hours. Next, 50% glycerol solution (8 mL/kg) was injected intramuscularly into both hind limbs of each mouse.
(§2) After establishing the AKI model, 10 mg/kg of hemin and biopolymer-hemin complex was injected intravenously. Twenty-four hours later, blood was collected for serum urea nitrogen (BUN) and creatinine analysis. Kidneys and other major organs (heart, liver, spleen, and lungs) were also collected for further histological analysis. 1-10. Histological analysis
The kidneys of each group were fixed with 4% formaldehyde, embedded in paraffin, and cut into 5 μm thick sections. H&E staining and TUNEL analysis of kidney sections were performed according to the manufacturer's protocol. For immunostaining of kidney injury molecule-1 (KIM-1) and MAC387, sections were treated with 100-fold diluted KIM-1 and MAC primary antibodies, and 200-fold diluted anti-rabbit IgG (Alexa Fluor 594) and anti-mouse IgG (Alexa Fluor 488) were each used as a secondary antibody. […] Images were analyzed quantitatively using ImageJ software. […]

Experiment [2] has the same test system. The experiment is described as follows: Serum analysis (BUN, creatinine) of AKI mice. Format: in vivo, ICR mice. Particulars: 10 mg/kg intravenous, 24 hours, compared to AKI mice. The protocol:
as §1, §2

Turning to Hemin, in the experiment with HK-2 cells (HK-2, 200 μM hydrogen peroxide), the “cytoprotective effect against hydrogen peroxide, overall” value is “no significant difference observed between CS-H and hemin”. In the experiment with HK-2 cells (hemin concentration 1 μM, 200 μM hydrogen peroxide), the “cell viability against hydrogen peroxide” value is reported as “no protective effect at all”. In addition, in the experiment with HK-2 cells (hemin concentration 5 and 25 μM, 200 μM hydrogen peroxide), the “protective effect against hydrogen peroxide” value is given as “improved protective effects”. The “kidney ROS levels (DHE staining)” value in experiment [1] (AKI mice (FIG. 6D, 6F)) was “not effective in reducing ROS levels”. In addition, the “macrophage signal (MAC387 immunostaining)” value in experiment [1] (AKI mice kidney) was “strong macrophage signals”. Besides, in experiment [2], the “serum BUN level” value was “did not induce significant changes” and the serum creatinine level entry is “did not induce significant changes”.

These data come from US20260224738A1, “MICELLE NANOPARTICLES COMPRISING BIOPOLYMER-HEMIN COMPLEX, AND USE THEREOF” (GWANGJU INSTITUTE OF SCIENCE AND TECHNOLOGY, priority 2023, published 2026).
